Test results as given in patent US10556884B2, “Pesticidally active heterocyclic derivatives with sulphur containing substituents” (SYNGENTA PARTICIPATIONS AG, priority 2015, dated 2020).

Key:
Assay type in all cases: in vivo
[1] = system: Diabrotica Balteata (Corn Root Worm); assay: Diabrotica balteata L2 larvae on maize sprouts; settings: 96 h, application rate of 200 ppm, L2 larvae, 4 days after infestation, read-out: effect in at least one of the two categories (mortality or growth inhibition)
Method: Example B2: Diabrotica Balteata (Corn Root Worm)
Maize sprouts placed onto an agar layer in 24-well microtiter plates were treated with aqueous test solutions prepared from 10′000 ppm DMSO stock solutions by spraying. After drying, the plates were infested with L2 larvae (6 to 10 per well). The samples were assessed for mortality and growth inhibition in comparison to untreated samples 4 days after infestation.

[2] = system: Frankliniella occidentalis (Western Flower Thrips); assay: Frankliniella occidentalis feeding/contact activity, sunflower leaf discs; settings: foliar, 168 h, application rate of 200 ppm, population of mixed ages, 7 days after infestation
Method: Example B4: Frankliniella occidentalis (Western Flower Thrips): Feeding/Contact Activity
(§1) Sunflower leaf discs were placed on agar in 24-well microtiter plates and sprayed with aqueous test solutions prepared from 10′000 DMSO stock solutions. After drying the leaf discs were infested with a Frankliniella population of mixed ages. The samples were assessed for mortality 7 days after infestation.

[3] = system: Myzus persicae (Green Peach Aphid); assay: Myzus persicae feeding/contact activity, sunflower leaf discs; settings: foliar, 144 h, application rate of 200 ppm, feeding/contact, population of mixed ages, 6 days after infestation, read-out: mortality
Method: Example B5: Myzus persicae (Green Peach Aphid): Feeding/Contact Activity
Sunflower leaf discs were placed onto agar in a 24-well microtiter plate and sprayed with aqueous test solutions prepared from 10′000 ppm DMSO stock solutions. After drying, the leaf discs were infested with an aphid population of mixed ages. The samples were assessed for mortality 6 days after infestation.

[4] = system: Myzus persicae (Green Peach Aphid); assay: Myzus persicae systemic activity, pea seedlings; settings: 144 h, test rate of 24 ppm, 6 days after placing seedlings into test solutions
[5] = system: Euschistus heros (Neotropical Brown Stink Bug); assay: Euschistus heros N2 nymphs on soybean leaves; settings: 120 h, application rate of 200 ppm, 5 days after infestation, read-out: effect in at least one of the two categories (mortality or growth inhibition)
[6] = system: Plutella xylostella (Diamond Back Moth); assay: Plutella xylostella L2 larvae on artificial diet; settings: 120 h, application rate of 200 ppm, L2 larvae, 5 days after infestation, read-out: effect in at least one of the two categories (mortality or growth inhibition)
Method: Example B7: Plutella xylostella (Diamond Back Moth)
24-well microtiter plates with artificial diet were treated with aqueous test solutions prepared from 10′000 ppm DMSO stock solutions by pipetting. After drying, the plates were infested with L2 larvae (10 to 15 per well). The samples were assessed for mortality and growth inhibition in comparison to untreated samples 5 days after infestation.

[7] = system: Spodoptera littoralis (Egyqptian Cotton Leaf Worm); assay: Spodoptera littoralis L1 larvae on sprayed cotton leaf discs; settings: foliar, 72 h, application rate of 200 ppm, L1 larvae, 3 days after infestation, read-out: control (mortality, anti-feeding effect, growth inhibition)
Method: Example B8: Spodoptera littoralis (Egyqptian Cotton Leaf Worm)
Cotton leaf discs were placed onto agar in 24-well microtiter plates and sprayed with aqueous test solutions prepared from 10′000 ppm DMSO stock solutions. After drying the leaf discs were infested with five L1 larvae. The samples were assessed for mortality, anti-feeding effect, and growth inhibition in comparison to untreated samples 3 days after infestation. Control of Spodoptera littoralis by a test sample is given when at least one of the categories mortality, anti-feedant effect, and growth inhibition is higher than the untreated sample.

[8] = system: Tetranychus urticae (Two-Spotted Spider Mite); assay: Tetranychus urticae feeding/contact activity, bean leaf discs; settings: foliar, 192 h, application rate of 200 ppm, mixed population (mobile stages), 8 days after infestation
Method: Example B10: Tetranychus urticae (Two-Spotted Spider Mite): Feeding/Contact Activity
Bean leaf discs on agar in 24-well microtiter plates were sprayed with aqueous test solutions prepared from 10′000 ppm DMSO stock solutions. After drying the leaf discs were infested with a mite population of mixed ages. The samples were assessed for mortality on mixed population (mobile stages) 8 days after infestation.

[9] = system: Bemisia tabaci (Cotton White Fly); assay: Bemisia tabaci feeding/contact activity, cotton leaf discs; settings: foliar, 144 h, application rate of 200 ppm, adult white flies, 6 days after incubation
Method: Example B1: Bemisia tabaci (Cotton White Fly): Feeding/Contact Activity
Cotton leaf discs were placed on agar in 24-well microtiter plates and sprayed with aqueous test solutions prepared from 10′000 ppm DMSO stock solutions. After drying the leaf discs were infested with adult white flies. The samples were checked for mortality 6 days after incubation.

[10] = system: Spodoptera littoralis (Egyqptian Cotton Leaf Worm); assay: Spodoptera littoralis, uptake by lettuce roots from agar; settings: 144 h, test rate of 12.5 ppm, 6 days after infestation, read-out: effect in at least one of the three categories (mortality, anti-feeding, or growth inhibition)
Description: Example B9: Spodoptera littoralis (Egyqptian Cotton Leaf Worm)
Test compounds were applied by pipette from 10′000 ppm DMSO stock solutions into 24-well plates and mixed with agar. Lettuce seeds were placed onto the agar and the multi well plate was closed by another plate which contained also agar. After 7 days the compound was absorbed by the roots and the lettuce grew into the lid plate. The lettuce leaves were then cut off into the lid plate. Spodoptera eggs were pipetted through a plastic stencil onto a humid gel blotting paper and the lid plate was closed with it. The samples were assessed for mortality, anti-feedant effect and growth inhibition in comparison to untreated samples 6 days after infestation.

[11] = system: Thrips tabaci (Onion Thrips); assay: Thrips tabaci feeding/contact activity, sunflower leaf discs; settings: foliar, 144 h, application rate of 200 ppm, population of mixed ages, 6 days after infestation
Method: Example B11: Thrips tabaci (Onion Thrips) Feeding/Contact Activity
as §1, with “10′000 ppm” for “10′000”, “thrips” for “Frankliniella”, “6” for “7”

CCS(=O)(=O)c1cc(NC(=O)C2CC2)cnc1-c1nnc(-c2cc(C(F)(F)F)ccn2)n1C [A2, N-[5-ethylsulfonyl-6-[4-methyl-5-[4-(trifluoromethyl)-2-pyridyl]-1,2,4-triazol-3-yl]-3-pyridyl]cyclopropanecarboxamide]
≥ 80%: percent effect (mortality or growth inhibition) at 200 ppm [1] | mortality at 200 ppm [2] | mortality at 200 ppm [3] | mortality at 24 ppm [4]

CCS(=O)(=O)c1ccc(NC(=O)C2CC2)nc1-c1nnc(-c2cc(C(F)(F)F)ccn2)n1C [A6, N-[5-ethylsulfonyl-6-[4-methyl-5-[4-(trifluoromethyl)-2-pyridyl]-1,2,4-triazol-3-yl]-2-pyridyl]cyclopropanecarboxamide]
≥ 80%: mortality at 200 ppm [2] | mortality at 200 ppm [3] | mortality at 24 ppm [4]

CCS(=O)(=O)c1cc(N(C)C(=O)C2CC2)cnc1-c1nnc(-c2cc(C(F)(F)F)ccn2)n1C [A7, N-[5-ethylsulfonyl-6-[4-methyl-5-[4-(trifluoromethyl)-2-pyridyl]-1,2,4-triazol-3-yl]-3-pyridyl]-N-methyl-cyclopropanecarboxamide]
≥ 80%: percent effect (mortality or growth inhibition) at 200 ppm [5] | mortality at 200 ppm [2] | mortality at 200 ppm [3] | mortality at 24 ppm [4] | percent effect (mortality or growth inhibition) at 200 ppm [6]

CCS(=O)(=O)c1cc(NC2CC2)cnc1-c1nnc(-c2cc(C(F)(F)F)ccn2)n1C [A9, N-cyclopropyl-5-ethylsulfonyl-6-[4-methyl-5-[4-(trifluoromethyl)-2-pyridyl]-1,2,4-triazol-3-yl]pyridin-3-amine]
≥ 80%: percent effect (mortality or growth inhibition) at 200 ppm [5] | mortality at 200 ppm [3] | mortality at 24 ppm [4] | mortality at 200 ppm [7] | mortality at 200 ppm [8]

CCS(=O)(=O)c1ccc(C(=O)N(C)C2CC2)nc1-c1nnc(-c2cc(C(F)(F)F)ccn2)n1C [A17, N-cyclopropyl-5-ethylsulfonyl-N-methyl-6-[4-methyl-5-[4-(trifluoromethyl)-2-pyridyl]-1,2,4-triazol-3-yl]pyridine-2-carboxamide]
≥ 80%: mortality at 200 ppm [9] | mortality at 200 ppm [3] | mortality at 24 ppm [4]

CCS(=O)(=O)c1cc(C(=O)NC2CC2)cnc1-c1nnc(-c2cc(C(F)(F)F)ccn2)n1C [A18, N-cyclopropyl-5-ethylsulfonyl-6-[4-methyl-5-[4-(trifluoromethyl)-2-pyridyl]-1,2,4-triazol-3-yl]pyridine-3-carboxamide]
≥ 80%: mortality at 24 ppm [4] | mortality at 200 ppm [8]

CCS(=O)(=O)c1cc(C(=O)NCC#N)cnc1-c1nnc(-c2cc(C(F)(F)F)ccn2)n1C [A26, N-(cyanomethyl)-5-ethylsulfonyl-6-[4-methyl-5-[4-(trifluoromethyl)-2-pyridyl]-1,2,4-triazol-3-yl]pyridine-3-carboxamide]
≥ 80%: mortality at 200 ppm [3] | mortality at 24 ppm [4] | mortality at 200 ppm [8]

CCS(=O)(=O)c1cc(N(C)N)cnc1-c1nnc(-c2cc(C(F)(F)F)ccn2)n1C [A30, 1-[5-ethylsulfonyl-6-[4-methyl-5-[4-(trifluoromethyl)-2-pyridyl]-1,2,4-triazol-3-yl]-3-pyridyl]-1-methyl-hydrazine]
≥ 80%: percent effect (mortality or growth inhibition) at 200 ppm [5] | mortality at 200 ppm [3]

CCS(=O)(=O)c1ccc(NCC(F)(F)F)nc1-c1nnc(-c2cc(C(F)(F)F)ccn2)n1C [A32, 5-ethylsulfonyl-6-[4-methyl-5-[4-(trifluoromethyl)-2-pyridyl]-1,2,4-triazol-3-yl]-N-(2,2,2-trifluoroethyl)pyridin-2-amine]
≥ 80%: mortality at 200 ppm [8]

CCS(=O)(=O)c1ccc(C(=O)O)nc1-c1nnc(-c2cc(C(F)(F)F)ccn2)n1C [A34, 5-ethylsulfonyl-6-[4-methyl-5-[4-(trifluoromethyl)-2-pyridyl]-1,2,4-triazol-3-yl]pyridine-2-carboxylic Acid]
≥ 80%: percent effect (mortality, anti-feeding or growth inhibition) at 12.5 ppm [10]

CCS(=O)(=O)c1ccc(N)nc1-c1nnc(-c2cc(C(F)(F)F)ccn2)n1C [A36, 5-ethylsulfonyl-6-[4-methyl-5-[4-(trifluoromethyl)-2-pyridyl]-1,2,4-triazol-3-yl]pyridin-2-amine]
≥ 80%: percent effect (mortality or growth inhibition) at 200 ppm [5] | mortality at 200 ppm [3] | mortality at 24 ppm [4]

CCS(=O)(=O)c1ccc(NC(=O)OC(C)(C)C)nc1-c1nnc(-c2cc(C(F)(F)F)ccn2)n1C [A37, tert-butyl N-[5-ethylsulfonyl-6-[4-methyl-5-[4-(trifluoromethyl)-2-pyridyl]-1,2,4-triazol-3-yl]-2-pyridyl]carbamate]
≥ 80%: mortality at 200 ppm [2] | mortality at 24 ppm [4] | percent effect (mortality or growth inhibition) at 200 ppm [6] | mortality at 200 ppm [7]

CCS(=O)(=O)c1cc(Cl)c(N)nc1-c1nnc(-c2cc(C(F)(F)F)ccn2)n1C [A42, 3-chloro-5-ethylsulfonyl-6-[4-methyl-5-[4-(trifluoromethyl)-2-pyridyl]-1,2,4-triazol-3-yl]pyridin-2-amine]
≥ 80%: mortality at 200 ppm [9] | percent effect (mortality or growth inhibition) at 200 ppm [1] | mortality at 200 ppm [3] | mortality at 24 ppm [4] | percent effect (mortality or growth inhibition) at 200 ppm [6] | mortality at 200 ppm [7] | mortality at 200 ppm [11]

CCS(=O)(=O)c1cc(Br)c(N)nc1-c1nnc(-c2cc(C(F)(F)F)ccn2)n1C [A43]
≥ 80%: mortality at 200 ppm [9] | percent effect (mortality or growth inhibition) at 200 ppm [1] | mortality at 200 ppm [3] | mortality at 24 ppm [4] | percent effect (mortality or growth inhibition) at 200 ppm [6] | mortality at 200 ppm [7] | mortality at 200 ppm [11]

CCS(=O)(=O)c1cc(N)c(Br)nc1-c1nnc(-c2cc(C(F)(F)F)ccn2)n1C [A45]
≥ 80%: percent effect (mortality or growth inhibition) at 200 ppm [1] | percent effect (mortality or growth inhibition) at 200 ppm [6] | mortality at 200 ppm [7] | percent effect (mortality, anti-feeding or growth inhibition) at 12.5 ppm [10]
